Converted amounts (≈) assume the structure as drawn. The source made the active and inactive calls. The calls are words filed in the database; no cut-off is given here.
What was measured:
Candida albicans = assay: Antifungal activity against Candida albicans NCIM 3471 assessed as growth inhibition by agar dilution method; assay type: functional
Fusarium oxysporum [1] = assay: Antifungal activity against Fusarium oxysporum NCIM 1332 assessed as growth inhibition by agar dilution method; assay type: functional
Aspergillus niger [2] = assay: Antifungal activity against Aspergillus niger NCIM 1196 assessed as growth inhibition by agar dilution method; assay type: functional
Aspergillus flavus [3] = assay: Antifungal activity against Aspergillus flavus NCIM 539 assessed as growth inhibition by agar dilution method; assay type: functional
Cryptococcus neoformans [4] = assay: Antifungal activity against Cryptococcus neoformans NCIM 576 assessed as growth inhibition by agar dilution method; assay type: functional
Aspergillus flavus [5] = assay: Antifungal activity against Aspergillus flavus NCIM 539 assessed as growth inhibition up to 200 ug/mL by agar dilution method; assay type: functional, organism-based
Cryptococcus neoformans [6] = assay: Antifungal activity against Cryptococcus neoformans NCIM 576 assessed as growth inhibition up to 200 ug/mL by agar dilution method; assay type: functional, organism-based
Fusarium oxysporum [7] = assay: Antifungal activity against Fusarium oxysporum NCIM 1332 assessed as growth inhibition up to 200 ug/mL by agar dilution method; assay type: functional, organism-based
Aspergillus niger [8] = assay: Antifungal activity against Aspergillus niger NCIM 1196 assessed as growth inhibition up to 200 ug/mL by agar dilution method; assay type: functional, organism-based

Row | SMILES | MIC (Candida albicans) [µg/mL] | MIC (Fusarium oxysporum [1]) [µg/mL] | MIC (Aspergillus niger [2]) [µg/mL] | MIC (Aspergillus flavus [3]) [µg/mL] | MIC (Cryptococcus neoformans [4]) [µg/mL] | growth inhibition (GI) (Aspergillus flavus [5]) | growth inhibition (GI) (Cryptococcus neoformans [6]) | growth inhibition (GI) (Fusarium oxysporum [7]) | growth inhibition (GI) (Aspergillus niger [8])
1 | O=C(c1ccc(Cl)cc1)N1CCC(n2cc(CN3CCc4sccc4C3)nn2)CC1 | 45 (≈ 102 µM) | 40 (≈ 90.5 µM) | 42.5 (≈ 96.2 µM) | 40 (≈ 90.5 µM) | 45 (≈ 102 µM) |  |  |  | 
2 | CC(=O)N1CCC(n2cc(CN3CCc4sccc4C3)nn2)CC1 | 40 (≈ 116 µM) | 45 (≈ 130 µM) | 100 (≈ 289 µM) |  |  | inactive | inactive |  | 
3 | c1ccc(CN2CCC(n3cc(CN4CCc5sccc5C4)nn3)CC2)cc1 | 50 (≈ 127 µM) | 75 (≈ 191 µM) | 100 (≈ 254 µM) | 60 (≈ 152 µM) | 90 (≈ 229 µM) |  |  |  | 
4 | O=C(c1ccccc1)N1CCC(n2cc(CN3CCc4sccc4C3)nn2)CC1 | 90 (≈ 221 µM) |  |  | 65 (≈ 159 µM) | 100 (≈ 245 µM) |  |  | inactive | inactive
5 | CS(=O)(=O)N1CCC(n2cc(CN3CCc4sccc4C3)nn2)CC1 | 50 (≈ 131 µM) | 30 (≈ 78.6 µM) | 40 (≈ 105 µM) | 40 (≈ 105 µM) | 25 (≈ 65.5 µM) |  |  |  | 
6 | c1cc2c(s1)CCN(Cc1cn(C3CCNCC3)nn1)C2 | 50 (≈ 165 µM) | 90 (≈ 297 µM) | 100 (≈ 330 µM) | 60 (≈ 198 µM) | 100 (≈ 330 µM) |  |  |  | 
7 | CCN1CCC(n2cc(CN3CCc4sccc4C3)nn2)CC1 | 90 (≈ 272 µM) | 100 (≈ 302 µM) | 47.5 (≈ 143 µM) | 35 (≈ 106 µM) | 150 (≈ 453 µM) |  |  |  | 
8 | Clc1ccc(COC(Cn2ccnc2)c2ccc(Cl)cc2Cl)c(Cl)c1 (stereo not given) [MICONAZOLE] | 25 (≈ 60.1 µM) | 25 (≈ 60.1 µM) | 12.5 (≈ 30 µM) | 12.5 (≈ 30 µM) | 25 (≈ 60.1 µM) |  |  |  | 
9 | CN1CCC(n2cc(CN3CCc4sccc4C3)nn2)CC1 | 40 (≈ 126 µM) | 70 (≈ 220 µM) |  | 40 (≈ 126 µM) |  |  | inactive |  | inactive
10 | CCC(=O)N1CCC(n2cc(CN3CCc4sccc4C3)nn2)CC1 | 50 (≈ 139 µM) | 60 (≈ 167 µM) |  | 30 (≈ 83.4 µM) |  |  | inactive |  | inactive
11 | CC(C)C(=O)N1CCC(n2cc(CN3CCc4sccc4C3)nn2)CC1 | 100 (≈ 268 µM) | 100 (≈ 268 µM) | 47.5 (≈ 127 µM) | 35 (≈ 93.7 µM) | 150 (≈ 402 µM) |  |  |  | 
12 | Cc1ccc(S(=O)(=O)N2CCC(n3cc(CN4CCc5sccc5C4)nn3)CC2)cc1 | 60 (≈ 131 µM) | 70 (≈ 153 µM) | 37.5 (≈ 81.9 µM) | 45 (≈ 98.3 µM) | 40 (≈ 87.4 µM) |  |  |  | 
